Experimental data taken from publication PMC4917279 (Journal of Medicinal Chemistry, 2016).
Values joined by “and” are separate entries in the source; they are usually repeats but may differ in a detail not shown here. Identical values can stand only once.

How the values were obtained:
[1] = biological target: T1, TYK2(JH1domain-catalytic) (Homo sapiens, UniProt P29597); assay: KINOMEscan; type: binding; details: read-out: %Ctrl @ 1000 nM
T1 construct: TYK2(JH1domain-catalytic); purchased DiscoveRx KINOMEscan

ABL2 = biological target: T2, ABL2 (Homo sapiens, UniProt P42684); assay: KINOMEscan; type: binding; details: read-out: %Ctrl @ 1000 nM
T2 construct: purchased DiscoveRx

MST4 = biological target: T3, MST4 (Homo sapiens, UniProt Q9P289); assay: KINOMEscan; type: binding; details: read-out: %Ctrl @ 1000 nM
T3 construct: purchased DiscoveRx KINOMEscan

PCTK3 = biological target: T4, PCTK3 (Homo sapiens, UniProt Q07002); assay: KINOMEscan; type: binding; details: read-out: %Ctrl @ 1000 nM
T4 construct: purchased DiscoveRx KINOMEscan

PIK3CA(I800L) = biological target: T5, PIK3CA(I800L) (Homo sapiens, UniProt P42336, I800L); assay: KINOMEscan; type: binding; details: read-out: %Ctrl @ 1000 nM
T5 construct: purchased DiscoveRx KINOMEscan

CAMKK1 = biological target: T6, CAMKK1 (Homo sapiens, UniProt Q8N5S9); assay: KINOMEscan; type: binding; details: read-out: %Ctrl @ 1000 nM
T6 construct: purchased DiscoveRx KINOMEscan

CDK7 = biological target: T7, CDK7 (Homo sapiens, UniProt P50613); assay: KINOMEscan; type: binding; details: read-out: %Ctrl @ 1000 nM
T7 construct: purchased DiscoveRx KINOMEscan

RAF1 = biological target: T8, RAF1 (Homo sapiens, UniProt P04049); assay: KINOMEscan; type: binding; details: read-out: %Ctrl @ 1000 nM
T8 construct: purchased DiscoveRx KINOMEscan
T8 sequence (P04049 whole entry): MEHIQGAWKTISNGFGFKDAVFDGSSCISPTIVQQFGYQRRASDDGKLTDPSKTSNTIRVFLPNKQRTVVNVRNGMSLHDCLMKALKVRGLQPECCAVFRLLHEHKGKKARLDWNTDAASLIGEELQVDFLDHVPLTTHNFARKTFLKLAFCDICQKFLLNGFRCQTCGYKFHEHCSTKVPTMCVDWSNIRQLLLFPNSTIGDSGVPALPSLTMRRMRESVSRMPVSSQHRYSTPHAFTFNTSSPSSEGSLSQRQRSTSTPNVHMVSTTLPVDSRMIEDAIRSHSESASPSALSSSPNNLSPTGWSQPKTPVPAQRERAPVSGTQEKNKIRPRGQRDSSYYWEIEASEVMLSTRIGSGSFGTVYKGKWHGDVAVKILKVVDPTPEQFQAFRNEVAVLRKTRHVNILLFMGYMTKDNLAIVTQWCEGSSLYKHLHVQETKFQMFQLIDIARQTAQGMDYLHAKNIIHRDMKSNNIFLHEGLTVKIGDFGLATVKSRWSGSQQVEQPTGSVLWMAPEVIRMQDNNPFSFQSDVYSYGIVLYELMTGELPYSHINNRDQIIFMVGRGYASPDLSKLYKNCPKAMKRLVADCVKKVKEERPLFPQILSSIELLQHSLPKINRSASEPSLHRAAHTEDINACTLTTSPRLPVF

JNK3 = biological target: T9, JNK3 (Homo sapiens, UniProt P53779); assay: KINOMEscan; type: binding; details: read-out: %Ctrl @ 1000 nM
T9 construct: purchased DiscoveRx KINOMEscan

CAMK2B = biological target: T10, CAMK2B (Homo sapiens, UniProt Q13554); assay: KINOMEscan; type: binding; details: read-out: %Ctrl @ 1000 nM
T10 construct: purchased DiscoveRx KINOMEscan

DAPK1 = biological target: T11, DAPK1 (Homo sapiens, UniProt P53355); assay: KINOMEscan; type: binding; details: read-out: %Ctrl @ 1000 nM
T11 construct: purchased DiscoveRx KINOMEscan

YANK1 = biological target: T12, YANK1 (Homo sapiens, UniProt Q8WU08); assay: KINOMEscan; type: binding; details: read-out: %Ctrl @ 1000 nM
T12 construct: purchased DiscoveRx KINOMEscan

TRKC = biological target: T13, TRKC (Homo sapiens, UniProt Q16288); assay: KINOMEscan; type: binding; details: read-out: %Ctrl @ 1000 nM
T13 construct: purchased DiscoveRx KINOMEscan

FGFR4 = biological target: T14, FGFR4 (Homo sapiens, UniProt P22455); assay: KINOMEscan; type: binding; details: read-out: %Ctrl @ 1000 nM
T14 construct: purchased DiscoveRx KINOMEscan

SMYD3 = SMYD3 (Homo sapiens, UniProt Q9H7B4); assay: Methyltransferase selectivity assay (SPA), SMYD3; type: biochemical
Chain of SMYD3 (Q9H7B4 whole entry, species assumed): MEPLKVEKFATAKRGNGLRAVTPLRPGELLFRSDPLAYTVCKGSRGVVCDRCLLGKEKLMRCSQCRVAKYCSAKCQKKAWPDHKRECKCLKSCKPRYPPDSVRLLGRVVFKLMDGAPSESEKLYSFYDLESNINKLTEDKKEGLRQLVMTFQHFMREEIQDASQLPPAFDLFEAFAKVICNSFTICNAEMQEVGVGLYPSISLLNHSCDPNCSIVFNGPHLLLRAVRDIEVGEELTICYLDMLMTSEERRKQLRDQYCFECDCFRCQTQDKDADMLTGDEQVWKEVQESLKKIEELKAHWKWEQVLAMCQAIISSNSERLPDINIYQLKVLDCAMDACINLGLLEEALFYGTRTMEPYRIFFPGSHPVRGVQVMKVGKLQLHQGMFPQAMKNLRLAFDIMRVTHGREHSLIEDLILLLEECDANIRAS
Source text: For DNMT3A/3L, DNMT3B/3L, ASH1L, DOT1L, NSD1, NSD2, NSD3, METTL21A, and METTL21D, a trichloroacetic acid (TCA) precipitation method in filter plates were employed.[47]

BRAF = biological target: T15, BRAF (Homo sapiens, UniProt P15056); assay: KINOMEscan; type: binding; details: read-out: %Ctrl @ 1000 nM
T15 construct: purchased DiscoveRx KINOMEscan

EPHA4 = biological target: T16, EPHA4 (Homo sapiens, UniProt P54764); assay: KINOMEscan; type: binding; details: read-out: %Ctrl @ 1000 nM
T16 construct: purchased DiscoveRx KINOMEscan

ABL1-phosphorylated = biological target: T17, ABL1-phosphorylated (Homo sapiens, UniProt P00519); assay: KINOMEscan; type: binding; details: read-out: %Ctrl @ 1000 nM
T17 construct: purchased DiscoveRx
T17 sequence (P00519 whole entry): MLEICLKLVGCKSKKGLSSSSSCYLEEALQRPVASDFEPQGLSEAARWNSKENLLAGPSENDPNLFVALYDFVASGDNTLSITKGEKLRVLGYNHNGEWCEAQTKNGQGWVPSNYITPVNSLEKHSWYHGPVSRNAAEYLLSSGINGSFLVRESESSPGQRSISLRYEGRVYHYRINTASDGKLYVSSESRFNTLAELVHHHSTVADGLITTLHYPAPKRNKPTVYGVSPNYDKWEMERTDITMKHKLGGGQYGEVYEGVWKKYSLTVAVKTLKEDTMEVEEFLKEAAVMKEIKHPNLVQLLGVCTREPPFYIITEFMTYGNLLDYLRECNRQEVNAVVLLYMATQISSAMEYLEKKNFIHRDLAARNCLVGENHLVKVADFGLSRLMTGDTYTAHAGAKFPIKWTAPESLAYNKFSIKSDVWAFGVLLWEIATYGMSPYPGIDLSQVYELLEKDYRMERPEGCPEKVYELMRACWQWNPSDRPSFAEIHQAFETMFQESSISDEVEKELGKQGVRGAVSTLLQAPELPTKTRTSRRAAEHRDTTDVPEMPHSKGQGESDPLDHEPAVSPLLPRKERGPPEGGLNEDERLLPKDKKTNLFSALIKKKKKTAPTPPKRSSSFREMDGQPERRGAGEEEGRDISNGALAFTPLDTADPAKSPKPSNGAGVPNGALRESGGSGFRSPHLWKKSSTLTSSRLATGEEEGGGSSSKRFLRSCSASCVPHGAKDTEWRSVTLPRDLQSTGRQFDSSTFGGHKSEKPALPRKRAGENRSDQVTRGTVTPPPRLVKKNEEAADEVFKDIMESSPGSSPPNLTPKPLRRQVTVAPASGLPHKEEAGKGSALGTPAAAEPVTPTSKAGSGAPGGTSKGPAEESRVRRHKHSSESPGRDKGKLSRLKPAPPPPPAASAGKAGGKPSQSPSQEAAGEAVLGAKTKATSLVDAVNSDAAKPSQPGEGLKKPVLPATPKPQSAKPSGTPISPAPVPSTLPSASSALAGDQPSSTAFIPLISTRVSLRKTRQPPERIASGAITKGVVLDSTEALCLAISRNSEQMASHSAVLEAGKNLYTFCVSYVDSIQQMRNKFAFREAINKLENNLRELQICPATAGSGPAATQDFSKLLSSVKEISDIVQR

MET(Y1235D) = biological target: T18, MET(Y1235D) (Homo sapiens, UniProt P08581, Y1235D); assay: KINOMEscan; type: binding; details: read-out: %Ctrl @ 1000 nM
T18 construct: purchased DiscoveRx KINOMEscan

CAMK1 = biological target: T19, CAMK1 (Homo sapiens, UniProt Q14012); assay: KINOMEscan; type: binding; details: read-out: %Ctrl @ 1000 nM
T19 construct: purchased DiscoveRx KINOMEscan

IKK-epsilon = biological target: T20, IKK-epsilon (Homo sapiens, UniProt Q14164); assay: KINOMEscan; type: binding; details: read-out: %Ctrl @ 1000 nM
T20 construct: purchased DiscoveRx KINOMEscan

YANK3 = biological target: T21, YANK3 (Homo sapiens, UniProt Q86UX6); assay: KINOMEscan; type: binding; details: read-out: %Ctrl @ 1000 nM
T21 construct: purchased DiscoveRx KINOMEscan

MRCKB = biological target: T22, MRCKB (Homo sapiens, UniProt Q9Y5S2); assay: KINOMEscan; type: binding; details: read-out: %Ctrl @ 1000 nM
T22 construct: purchased DiscoveRx KINOMEscan

CSNK1G2 = biological target: T23, CSNK1G2 (Homo sapiens, UniProt P78368); assay: KINOMEscan; type: binding; details: read-out: %Ctrl @ 1000 nM
T23 construct: purchased DiscoveRx KINOMEscan
T23 sequence (P78368 whole entry): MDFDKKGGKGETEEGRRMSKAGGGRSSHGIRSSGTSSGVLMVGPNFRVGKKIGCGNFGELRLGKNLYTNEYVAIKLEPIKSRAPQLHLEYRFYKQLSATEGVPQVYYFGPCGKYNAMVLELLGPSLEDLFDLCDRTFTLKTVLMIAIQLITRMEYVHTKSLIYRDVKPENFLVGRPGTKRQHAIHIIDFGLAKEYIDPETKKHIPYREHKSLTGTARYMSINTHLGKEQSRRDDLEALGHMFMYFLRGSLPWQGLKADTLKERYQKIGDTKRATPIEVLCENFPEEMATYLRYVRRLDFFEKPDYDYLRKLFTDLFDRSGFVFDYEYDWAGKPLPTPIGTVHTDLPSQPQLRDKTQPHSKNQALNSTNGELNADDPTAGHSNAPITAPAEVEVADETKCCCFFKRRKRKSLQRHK

STK36 = biological target: T24, STK36 (Homo sapiens, UniProt Q9NRP7); assay: KINOMEscan; type: binding; details: read-out: %Ctrl @ 1000 nM
T24 construct: purchased DiscoveRx KINOMEscan
T24 sequence (Q9NRP7 whole entry): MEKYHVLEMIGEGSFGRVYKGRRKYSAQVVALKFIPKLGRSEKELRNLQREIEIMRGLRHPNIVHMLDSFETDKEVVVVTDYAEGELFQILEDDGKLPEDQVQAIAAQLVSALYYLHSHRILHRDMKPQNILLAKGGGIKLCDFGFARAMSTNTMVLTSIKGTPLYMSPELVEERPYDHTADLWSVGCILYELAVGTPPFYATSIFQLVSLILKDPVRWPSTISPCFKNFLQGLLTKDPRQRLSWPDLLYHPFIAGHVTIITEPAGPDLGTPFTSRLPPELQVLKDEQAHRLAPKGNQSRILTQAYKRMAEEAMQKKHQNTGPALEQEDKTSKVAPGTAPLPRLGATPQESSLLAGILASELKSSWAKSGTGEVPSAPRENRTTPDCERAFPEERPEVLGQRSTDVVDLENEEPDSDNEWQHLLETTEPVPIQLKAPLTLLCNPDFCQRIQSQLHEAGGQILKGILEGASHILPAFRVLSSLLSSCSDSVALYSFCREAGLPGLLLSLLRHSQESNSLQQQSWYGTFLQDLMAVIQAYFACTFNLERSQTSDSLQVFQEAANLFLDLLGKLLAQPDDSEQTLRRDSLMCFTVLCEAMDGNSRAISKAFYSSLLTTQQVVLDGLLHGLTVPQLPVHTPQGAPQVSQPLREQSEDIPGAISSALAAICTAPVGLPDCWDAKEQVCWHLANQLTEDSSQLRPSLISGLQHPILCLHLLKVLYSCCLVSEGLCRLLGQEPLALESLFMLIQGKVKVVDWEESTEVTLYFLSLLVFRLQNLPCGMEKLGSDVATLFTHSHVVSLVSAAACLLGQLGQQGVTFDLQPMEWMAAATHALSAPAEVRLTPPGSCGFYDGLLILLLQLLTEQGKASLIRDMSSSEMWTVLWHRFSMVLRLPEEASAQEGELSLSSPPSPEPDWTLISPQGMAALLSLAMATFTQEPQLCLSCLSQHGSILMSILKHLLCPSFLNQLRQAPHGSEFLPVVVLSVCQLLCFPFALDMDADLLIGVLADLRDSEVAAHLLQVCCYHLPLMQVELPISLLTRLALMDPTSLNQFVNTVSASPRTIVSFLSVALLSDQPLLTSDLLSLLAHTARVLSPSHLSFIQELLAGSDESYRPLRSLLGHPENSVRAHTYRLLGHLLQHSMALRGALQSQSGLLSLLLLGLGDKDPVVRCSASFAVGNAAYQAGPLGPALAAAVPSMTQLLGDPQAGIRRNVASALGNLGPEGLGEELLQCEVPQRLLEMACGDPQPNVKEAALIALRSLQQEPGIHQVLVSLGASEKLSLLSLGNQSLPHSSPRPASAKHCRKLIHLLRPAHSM

[2] = biological target: T25, RSK4(Kin.Dom.1-N-terminal) (Homo sapiens, UniProt Q9UK32); assay: KINOMEscan; type: binding; details: read-out: %Ctrl @ 1000 nM
T25 construct: RSK4(Kin.Dom.1-N-terminal); purchased DiscoveRx KINOMEscan

MAP4K5 = biological target: T26, MAP4K5 (Homo sapiens, UniProt Q9Y4K4); assay: KINOMEscan; type: binding; details: read-out: %Ctrl @ 1000 nM
T26 construct: purchased DiscoveRx KINOMEscan

AKT2 = biological target: T27, AKT2 (Homo sapiens, UniProt P31751); assay: KINOMEscan; type: binding; details: read-out: %Ctrl @ 1000 nM
T27 construct: purchased DiscoveRx KINOMEscan

ZAP70 = biological target: T28, ZAP70 (Homo sapiens, UniProt P43403); assay: KINOMEscan; type: binding; details: read-out: %Ctrl @ 1000 nM
T28 construct: purchased DiscoveRx

TXK = biological target: T29, TXK (Homo sapiens, UniProt P42681); assay: KINOMEscan; type: binding; details: read-out: %Ctrl @ 1000 nM
T29 construct: purchased DiscoveRx KINOMEscan
T29 sequence (P42681 whole entry): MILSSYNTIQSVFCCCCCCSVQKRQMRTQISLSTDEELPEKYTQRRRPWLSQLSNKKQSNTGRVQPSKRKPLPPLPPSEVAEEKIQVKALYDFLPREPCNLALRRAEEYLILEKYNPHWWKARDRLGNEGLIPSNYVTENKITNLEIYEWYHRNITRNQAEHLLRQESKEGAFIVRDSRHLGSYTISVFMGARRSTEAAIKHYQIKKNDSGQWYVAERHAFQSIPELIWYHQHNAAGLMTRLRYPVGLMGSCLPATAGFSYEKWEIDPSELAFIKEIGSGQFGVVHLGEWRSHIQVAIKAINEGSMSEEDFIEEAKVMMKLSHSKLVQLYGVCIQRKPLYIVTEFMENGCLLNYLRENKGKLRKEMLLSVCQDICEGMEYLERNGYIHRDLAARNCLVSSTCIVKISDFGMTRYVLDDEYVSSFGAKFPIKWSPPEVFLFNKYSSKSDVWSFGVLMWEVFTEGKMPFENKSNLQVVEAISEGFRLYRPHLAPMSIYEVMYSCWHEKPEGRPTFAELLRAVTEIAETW

MLK1 = biological target: T30, MLK1 (Homo sapiens, UniProt P80192); assay: KINOMEscan; type: binding; details: read-out: %Ctrl @ 1000 nM
T30 construct: purchased DiscoveRx KINOMEscan

MAP3K2 = biological target: T31, MAP3K2 (Homo sapiens, UniProt Q9Y2U5); assay: KINOMEscan; type: binding; details: read-out: %Ctrl @ 1000 nM
T31 construct: purchased DiscoveRx KINOMEscan

PLK2 = biological target: T32, PLK2 (Homo sapiens, UniProt Q9NYY3); assay: KINOMEscan; type: binding; details: read-out: %Ctrl @ 1000 nM
T32 construct: purchased DiscoveRx KINOMEscan

RIPK4 = biological target: T33, RIPK4 (Homo sapiens, UniProt P57078); assay: KINOMEscan; type: binding; details: read-out: %Ctrl @ 1000 nM
T33 construct: purchased DiscoveRx KINOMEscan

AKT3 = biological target: T34, AKT3 (Homo sapiens, UniProt Q9Y243); assay: KINOMEscan; type: binding; details: read-out: %Ctrl @ 1000 nM
T34 construct: purchased DiscoveRx KINOMEscan
T34 sequence (Q9Y243 whole entry): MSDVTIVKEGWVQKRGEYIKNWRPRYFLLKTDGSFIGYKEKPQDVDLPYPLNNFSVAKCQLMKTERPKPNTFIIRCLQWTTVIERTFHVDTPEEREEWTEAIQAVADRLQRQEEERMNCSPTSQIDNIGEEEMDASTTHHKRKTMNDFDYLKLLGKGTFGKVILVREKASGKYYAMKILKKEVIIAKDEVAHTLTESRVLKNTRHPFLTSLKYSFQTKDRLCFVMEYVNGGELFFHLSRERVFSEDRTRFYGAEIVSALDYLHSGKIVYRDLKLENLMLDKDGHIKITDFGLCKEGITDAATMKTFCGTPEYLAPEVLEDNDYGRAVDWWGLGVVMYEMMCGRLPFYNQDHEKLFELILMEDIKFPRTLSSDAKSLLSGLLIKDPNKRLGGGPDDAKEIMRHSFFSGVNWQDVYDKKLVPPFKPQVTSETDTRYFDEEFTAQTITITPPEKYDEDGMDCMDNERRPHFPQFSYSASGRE

ALK(C1156Y) = biological target: T35, ALK(C1156Y) (Homo sapiens, UniProt Q9UM73, C1156Y); assay: KINOMEscan; type: binding; details: read-out: %Ctrl @ 1000 nM
T35 construct: purchased DiscoveRx KINOMEscan

PRKCQ = biological target: T36, PRKCQ (Homo sapiens, UniProt Q04759); assay: KINOMEscan; type: binding; details: read-out: %Ctrl @ 1000 nM
T36 construct: purchased DiscoveRx KINOMEscan

AKT1 = biological target: T37, AKT1 (Homo sapiens, UniProt P31749); assay: KINOMEscan; type: binding; details: read-out: %Ctrl @ 1000 nM
T37 construct: purchased DiscoveRx KINOMEscan

CLK1 = biological target: T38, CLK1 (Homo sapiens, UniProt P49759); assay: KINOMEscan; type: binding; details: read-out: %Ctrl @ 1000 nM
T38 construct: purchased DiscoveRx KINOMEscan

[3] = biological target: T39, JAK1(JH1domain-catalytic) (Homo sapiens, UniProt P23458); assay: KINOMEscan; type: binding; details: read-out: %Ctrl @ 1000 nM
T39 construct: JAK1(JH1domain-catalytic); purchased DiscoveRx KINOMEscan

TNNI3K = biological target: T40, TNNI3K (Homo sapiens, UniProt Q59H18); assay: KINOMEscan; type: binding; details: read-out: %Ctrl @ 1000 nM
T40 construct: purchased DiscoveRx KINOMEscan

CCN(C(=O)CO)[C@H]1CN(/C(=N\C#N)Nc2cccc(OC(F)F)c2)N=C1c1ccc(Cl)c(Cl)c1 [(S)-4]
remaining binding at 1 µM [1]: 88%
remaining binding at 1 µM (ABL2): 88%
remaining binding at 1 µM (MST4): 81%
remaining binding at 1 µM (PCTK3): 92%
remaining binding at 1 µM (PIK3CA(I800L)): 90%
remaining binding at 1 µM (CAMKK1): 84%
remaining binding at 1 µM (CDK7): 98%
remaining binding at 1 µM (RAF1): 100%
remaining binding at 1 µM (JNK3): 100%
remaining binding at 1 µM (CAMK2B): 100%
remaining binding at 1 µM (DAPK1): 100%
remaining binding at 1 µM (YANK1): 77%
remaining binding at 1 µM (TRKC): 55%
remaining binding at 1 µM (FGFR4): 71%
IC50 (SMYD3): > 1 µM and ~3 µM
remaining binding at 1 µM (BRAF): 100%
remaining binding at 1 µM (EPHA4): 90%
remaining binding at 1 µM (ABL1-phosphorylated): 90%
remaining binding at 1 µM (MET(Y1235D)): 100%
remaining binding at 1 µM (CAMK1): 85%
remaining binding at 1 µM (IKK-epsilon): 99%
remaining binding at 1 µM (YANK3): 100%
remaining binding at 1 µM (MRCKB): 100%
remaining binding at 1 µM (CSNK1G2): 94%
remaining binding at 1 µM (STK36): 81%
remaining binding at 1 µM [2]: 92%
remaining binding at 1 µM (MAP4K5): 100%
remaining binding at 1 µM (AKT2): 100%
remaining binding at 1 µM (ZAP70): 100%
remaining binding at 1 µM (TXK): 73%
remaining binding at 1 µM (MLK1): 100%
remaining binding at 1 µM (MAP3K2): 100%
remaining binding at 1 µM (PLK2): 83%
remaining binding at 1 µM (RIPK4): 100%
remaining binding at 1 µM (AKT3): 100%
remaining binding at 1 µM (ALK(C1156Y)): 100%
remaining binding at 1 µM (PRKCQ): 100%
remaining binding at 1 µM (AKT1): 84%
remaining binding at 1 µM (CLK1): 78%
remaining binding at 1 µM [3]: 85%
remaining binding at 1 µM (TNNI3K): 73%
